Reference: DBAASP
Converted amounts (≈) assume the structure as drawn. “And” between values parts separate entries of the source, which are not always exact repeats. Equal entries are not always repeated. Values belong to the compound of their own block, whether it stands above or below them.

Assays:
Test in all cases: ≥ marks a high value that may be exact or a test limit, other limits are often not marked, values filed in µg/mL are converted to µM
Bacillus subtilis = system: Bacillus subtilis
Candida albicans = system: Candida albicans
Escherichia coli = system: Escherichia coli
Staphylococcus aureus = system: Staphylococcus aureus
[1] = system: Enterococcus faecalis ATCC 29212
[2] = system: Escherichia coli DH5alpha
[3] = system: Klebsiella pneumoniae ATCC 13883
[4] = system: Pseudomonas aeruginosa ATCC 27853
[5] = system: Salmonella enterica subsp. enterica serovar Typhimurium ATCC 14028
[6] = system: Staphylococcus aureus ATCC 25923
Bacillus subtilis 168 = system: Bacillus subtilis 168
Escherichia coli B = system: Escherichia coli B
Pseudomonas aeruginosa = system: Pseudomonas aeruginosa
[7] = system: Acinetobacter baumannii ATCC 19606
Acinetobacter baumannii = system: Acinetobacter baumannii
[8] = system: Escherichia coli ATCC 25922
Klebsiella pneumoniae = system: Klebsiella pneumoniae
[9] = system: Salmonella enterica subsp. enterica serovar Typhimurium C77-31
[10] = system: Staphylococcus aureus ATCC 29213
[11] = system: Staphylococcus epidermidis ATCC 12228
[12] = system: Staphylococcus aureus ATCC BAA-1556
Escherichia coli UB1005 = system: Escherichia coli UB1005

Compound: CC[C@H](C)[C@H](NC(=O)[C@@H]1CCCN1C(=O)[C@H](CCSC)NC(=O)[C@@H](N)Cc1ccccc1)C(=O)N[C@@H](CC(C)C)C(=O)N[C@@H](CO)C(=O)N[C@H]1CSSC[C@@H](C(=O)O)NC(=O)[C@H](CCCN=C(N)N)NC(=O)[C@H](CCCCN)NC(=O)[C@H](Cc2ccccc2)NC(=O)[C@H](CCCN=C(N)N)NC(=O)[C@H](CO)NC1=O [FMPILSCSRFKRC]
MIC (Bacillus subtilis): 23.6 µM (≈ 37.5 µg/mL)
MIC (Candida albicans): 0.693 µM (≈ 1.1 µg/mL)
MIC (Escherichia coli): 2.95 µM (≈ 4.67 µg/mL)
MIC (Staphylococcus aureus): 5.9 µM (≈ 9.36 µg/mL)

Compound: CC[C@H](C)[C@@H]1NC(=O)[C@H](CC(C)C)NC(=O)[C@H](CCC(N)=O)NC(=O)[C@H](Cc2ccc(O)cc2)NC(=O)[C@H](C)NC(=O)[C@@H](NC(=O)[C@H](CCCCN)NC(=O)[C@@H](NC(=O)[C@H](CC(C)C)NC(=O)[C@@H](NC(=O)[C@H](Cc2ccccc2)NC(=O)[C@H](CC(C)C)NC(=O)CN)[C@@H](C)O)[C@@H](C)CC)CSSC[C@@H](C(=O)N[C@@H](CC(N)=O)C(=O)O)NC(=O)[C@H](C)NC(=O)[C@H](C(C)C)NC(=O)[C@H]([C@@H](C)O)NC(=O)[C@@H]2CCCN2C(=O)[C@H](C)NC1=O [GLFTLIKCAYQLIAPTVACN]
MIC (Bacillus subtilis): 16.6 µM (≈ 35.6 µg/mL)
MIC (Candida albicans): 4.16 µM (≈ 8.89 µg/mL)
MIC (Escherichia coli): 16.6 µM (≈ 35.6 µg/mL)
MIC (Staphylococcus aureus): 8.32 µM (≈ 17.8 µg/mL)

Compound: CC[C@H](C)[C@H](NC(=O)[C@H](CC(C)C)NC(=O)[C@H](C)NC(=O)[C@@H]1CCCN1C(=O)[C@H](CC(C)C)NC(=O)CN)C(=O)N[C@@H](CO)C(=O)N[C@@H](Cc1c[nH]c2ccccc12)C(=O)N[C@H](C(=O)N[C@@H](CCCCN)C(=O)N[C@@H](CCCN=C(N)N)C(=O)N[C@@H](CCCCN)C(=O)N[C@@H](CCCN=C(N)N)C(=O)N[C@@H](CC(C)C)C(N)=O)[C@@H](C)CC [GLPALISWIKRKRL]
MIC (Bacillus subtilis): 0.394 µM (≈ 0.65 µg/mL)
MIC (Escherichia coli): 6.9 µM (≈ 11.4 µg/mL)
MIC (Staphylococcus aureus): 1.57 µM (≈ 2.6 µg/mL)

Compound: CC[C@H](C)[C@H](NC(=O)[C@H](CC(C)C)NC(=O)[C@H](Cc1cnc[nH]1)NC(=O)CNC(=O)[C@H](CC(C)C)NC(=O)[C@@H](NC(=O)[C@H](CCCCN)NC(=O)[C@H](CO)NC(=O)[C@H](Cc1c[nH]c2ccccc12)NC(=O)[C@H](CCSC)NC(=O)CN)[C@@H](C)CC)C(N)=O [GMWSKILGHLI]
MIC (Bacillus subtilis 168): 3.5 µM (≈ 4.39 µg/mL)
MIC (Escherichia coli B): 7 µM (≈ 8.78 µg/mL)
MIC (Pseudomonas aeruginosa): 100 µM (≈ 125 µg/mL)
MIC (Staphylococcus aureus): 15.5 µM (≈ 19.4 µg/mL)

Compound: CC[C@H](C)[C@H](NC(=O)[C@H](CC(C)C)NC(=O)[C@H](C)NC(=O)[C@@H]1CCCN1C(=O)[C@H](CO)NC(=O)CN)C(=O)N[C@@H](CO)C(=O)N[C@@H](Cc1c[nH]c2ccccc12)C(=O)N[C@H](C(=O)N[C@@H](CCCCN)C(=O)N[C@@H](CCCN=C(N)N)C(=O)N[C@@H](CCCCN)C(=O)N[C@@H](CCCN=C(N)N)C(=O)N[C@@H](CCC(N)=O)C(=O)N[C@@H](CCC(N)=O)C(N)=O)[C@@H](C)CC [GSPALISWIKRKRQQ]
MIC (Bacillus subtilis): ≥ 38.2 µM
MIC (Escherichia coli): > 153 µM
MIC (Staphylococcus aureus): 50.9 µM (≈ 90 µg/mL)

Compound: CC[C@H](C)[C@H](NC(=O)[C@H](CC(C)C)NC(=O)[C@H](Cc1cnc[nH]1)NC(=O)CNC(=O)[C@H](CC(C)C)NC(=O)[C@@H](NC(=O)[C@H](CCCCN)NC(=O)[C@H](CO)NC(=O)[C@H](Cc1c[nH]c2ccccc12)NC(=O)[C@H](CCSC)NC(=O)[C@@H](N)CCCCN)[C@@H](C)CC)C(=O)N[C@@H](CCCN=C(N)N)C(N)=O [KMWSKILGHLIR]
MIC (Bacillus subtilis 168): 2.1 µM (≈ 3.11 µg/mL)
MIC (Escherichia coli B): 6.3 µM (≈ 9.33 µg/mL)
MIC (Pseudomonas aeruginosa): 73.3 µM (≈ 109 µg/mL)
MIC (Staphylococcus aureus): 41.7 µM (≈ 61.8 µg/mL)

Compound: CC[C@H](C)[C@H](NC(=O)[C@H](Cc1c[nH]c2ccccc12)NC(=O)[C@@H](N)CCCN=C(N)N)C(=O)N[C@@H](CCCN=C(N)N)C(=O)N[C@@H](Cc1c[nH]c2ccccc12)C(=O)N[C@@H](CC(C)C)C(N)=O [RWIRWL]
MIC [12]: ≥ 100 µM

Compound: CC(C)C[C@H](NC(=O)[C@H](CCCN=C(N)N)NC(=O)[C@H](Cc1c[nH]c2ccccc12)NC(=O)[C@H](CCCN=C(N)N)NC(=O)[C@@H](NC(=O)[C@H](CCCCN)NC(=O)[C@H](Cc1c[nH]c2ccccc12)NC(=O)[C@H](CCCN=C(N)N)NC(=O)[C@H](CC(C)C)NC(=O)[C@H](Cc1c[nH]c2ccccc12)NC(=O)[C@@H](N)CCCN=C(N)N)[C@@H](C)O)C(=O)N[C@@H](CCCCN)C(N)=O [RWLRWKTRWRLK]
MIC [8]: 2 µM (≈ 3.57 µg/mL)
MIC (Escherichia coli UB1005): 4 µM (≈ 7.14 µg/mL)
MIC [9]: 8 µM (≈ 14.3 µg/mL)
MIC [6]: 16 µM (≈ 28.5 µg/mL)
MIC [10]: 4 µM (≈ 7.14 µg/mL)
MIC [11]: 16 µM (≈ 28.5 µg/mL)

Compound: CC(C)[C@H](N)C(=O)N[C@H](C(=O)N[C@@H](CCCCN)C(=O)N[C@H](C(=O)N[C@H](C(=O)N[C@H](C(=O)N[C@@H](CCCCN)C(=O)N[C@H](C(=O)N[C@H](C(N)=O)C(C)C)C(C)C)C(C)C)C(C)C)C(C)C)C(C)C [VVKVVVKVV]
MIC [12]: ≥ 100 µM

Compound: CC(C)C[C@H](NC(=O)[C@H](Cc1c[nH]c2ccccc12)NC(=O)[C@H](Cc1c[nH]c2ccccc12)NC(=O)[C@H](CCCN=C(N)N)NC(=O)[C@H](Cc1c[nH]c2ccccc12)NC(=O)[C@H](Cc1c[nH]c2ccccc12)NC(=O)[C@H](CC(C)C)NC(=O)[C@H](Cc1c[nH]c2ccccc12)NC(=O)[C@@H](N)Cc1c[nH]c2ccccc12)C(N)=O [WWLWWRWWL]
MIC [12]: 6.25 µM (≈ 9.48 µg/mL)

The next lines start with the values.

MIC (Bacillus subtilis): 4 µM (≈ 9.76 µg/mL)
MIC [1]: 64 µM (≈ 156 µg/mL)
MIC [2]: 1 µM (≈ 2.44 µg/mL)
MIC [3]: 1 µM (≈ 2.44 µg/mL)
MIC [4]: 2 µM (≈ 4.88 µg/mL)
MIC [5]: 2 µM (≈ 4.88 µg/mL)
MIC [6]: 2 µM (≈ 4.88 µg/mL)
Compound: CC[C@H](C)[C@H](NC(=O)CN)C(=O)NCC(=O)N[C@@H](CCCCN)C(=O)N[C@@H](Cc1ccccc1)C(=O)N[C@@H](CC(C)C)C(=O)N[C@@H](CCCCN)C(=O)N[C@@H](CCCCN)C(=O)N[C@@H](C)C(=O)N[C@@H](CCCCN)C(=O)N[C@@H](CCCCN)C(=O)NCC(=O)N[C@H](C(=O)NCC(=O)N[C@@H](C)C(=O)N[C@H](C(=O)N[C@@H](CC(C)C)C(=O)N[C@@H](CCCCN)C(=O)N[C@H](C(=O)N[C@@H](CC(C)C)C(=O)N[C@H](C(=O)N[C@H](C(=O)NCC(=O)N[C@@H](CC(C)C)C(=O)O)[C@@H](C)O)[C@@H](C)O)C(C)C)C(C)C)[C@@H](C)CC [GIGKFLKKAKKGIGAVLKVLTTGL]

MIC (Bacillus subtilis): 5 µM (≈ 8.8 µg/mL)
MIC (Escherichia coli): 9 µM (≈ 15.8 µg/mL)
Compound: CC[C@H](C)[C@H](N)C(=O)N[C@@H](CC(N)=O)C(=O)N[C@@H](Cc1c[nH]c2ccccc12)C(=O)N[C@@H](CCCCN)C(=O)N[C@@H](CCCCN)C(=O)N[C@H](C(=O)N[C@@H](Cc1ccccc1)C(=O)N[C@@H](CCC(=O)O)C(=O)N[C@@H](CCCCN)C(=O)N[C@H](C(=O)N[C@@H](CCCCN)C(=O)N[C@@H](CC(=O)O)C(=O)N[C@@H](CC(C)C)C(=O)N[C@H](C(N)=O)C(C)C)C(C)C)[C@@H](C)CC [INWKKIFEKVKDLV]

MIC [7]: 2 µM (≈ 4.12 µg/mL)
MIC (Acinetobacter baumannii): 22.6 µM (≈ 46.7 µg/mL)
MIC [8]: 1.41 µM (≈ 2.92 µg/mL)
MIC (Escherichia coli): 32 µM (≈ 66 µg/mL)
MIC [3]: 2.83 µM (≈ 5.83 µg/mL)
MIC (Klebsiella pneumoniae): 22.6 µM (≈ 46.7 µg/mL)
MIC [4]: 11.3 µM (≈ 23.3 µg/mL)
MIC (Pseudomonas aeruginosa): 32 µM (≈ 66 µg/mL)
MIC [6]: 4 µM (≈ 8.25 µg/mL)
MIC (Staphylococcus aureus): 2.83 µM (≈ 5.83 µg/mL)
Compound: CC[C@H](C)[C@H](NC(=O)[C@@H](N)CCCCN)C(=O)N[C@@H](C)C(=O)N[C@@H](CC(C)C)C(=O)N[C@@H](CCCCN)C(=O)N[C@@H](C)C(=O)N[C@@H](CC(C)C)C(=O)N[C@@H](CCCCN)C(=O)N[C@@H](C)C(=O)N[C@@H](CC(C)C)C(=O)N[C@@H](CCCCN)C(=O)N[C@@H](C)C(=O)N[C@@H](CC(C)C)C(=O)NCC(=O)N[C@@H](CCCCN)C(=O)N[C@@H](C)C(=O)N[C@@H](CC(C)C)C(=O)N[C@@H](CCCCN)C(=O)N[C@@H](C)C(=O)N[C@@H](CC(C)C)C(N)=O [KIALKALKALKALGKALKAL]

MIC [1]: 2 µM and 4 µM
MIC [8]: 4 µM (≈ 11.7 µg/mL)
MIC [4]: 4 µM (≈ 11.7 µg/mL)
MIC [9]: 2 µM and 4 µM
MIC [10]: 2 µM and 4 µM
MIC [11]: 2 µM and 4 µM
Compound: CC(C)C[C@H](NC(=O)[C@H](CCCN=C(N)N)NC(=O)[C@H](CC(N)=O)NC(=O)[C@H](C)NC(=O)[C@H](CCCN=C(N)N)NC(=O)[C@H](CC(C)C)NC(=O)[C@H](Cc1c[nH]c2ccccc12)NC(=O)[C@H](CC(C)C)NC(=O)[C@H](CCCN=C(N)N)NC(=O)[C@H](CCCN=C(N)N)NC(=O)[C@H](CC(C)C)NC(=O)[C@H](CC(C)C)NC(=O)[C@H](CCCN=C(N)N)NC(=O)[C@H](CC(N)=O)NC(=O)[C@H](C)NC(=O)[C@H](CCCN=C(N)N)NC(=O)[C@H](CC(C)C)NC(=O)[C@H](Cc1c[nH]c2ccccc12)NC(=O)[C@H](CC(C)C)NC(=O)[C@H](CCCN=C(N)N)NC(=O)[C@H](CCCN=C(N)N)NC(=O)[C@@H](N)CC(C)C)C(N)=O [LRRLWLRANRLLRRLWLRANRL]
